In patent US20090221615A1, “COMBINATION ANTI-CANCER AGENTS” (priority 2008, published 2009):

What was measured:
[1] = Body weight change in the H460 xenograft study; type: in vivo, CD-1 nude mice; settings: 28-day period; Pemetrexed i.p. 200 mg/kg, Lucanthone oral 80 mg/kg, once every 4 days x7; vehicles −2.9%
Protocol: (§1) Methods: Groups of CD-1 nude mice were xenografted subcutaneously with human H460 non-small cell lung carcinoma cells. Treatments were initiated when tumor growth reached approximately 130 mm^3. Treatments were administered 7 times at frequency of once every 4 days and included vehicles, Pemetrexed given intraperitoneally at 200 mg/kg, Lucanthone given orally at 80 mg/kg, and the combinations of Pemetrexed and Lucanthone at the same doses. The tumor growths and body weight change were followed for 28 days.

[2] = tested on: human H460 non-small cell lung carcinoma cells; assay: H460 non-small cell lung carcinoma xenograft tumor growth in CD-1 nude mice; type: in vivo; settings: 28 days, 7 treatments once every 4 days, Pemetrexed i.p. 200 mg/kg, Lucanthone oral 80 mg/kg
Protocol: as §1

Nc1nc2[nH]cc(CCc3ccc(C(=O)N[C@@H](CCC(=O)O)C(=O)O)cc3)c2c(=O)[nH]1 [Pemetrexed, N-[4-[2-(2-amino-4,7-dihydro-4-oxo-1H-pyrrolo[2,3-d]pyrimidin-5-yl)ethyl]-benzoyl]-L-glutamic acid]
body weight changes excluding the tumor weights [1]: −0.9%
growth inhibition compared to the vehicle-treated group [2]: 33%
fold of increases of the tumor volume ([2]; vehicles 42): 28 fold
